ChEMBL document CHEMBL3132769, “Fragment growing to retain or alter the selectivity of anchored kinase hinge-binding fragments” (Medchemcomm, 2014)

What was measured:
[1] = molecular target: Protein kinase C alpha type (Homo sapiens) (UniProt P17252); assay: Inhibition of human truncated PKC alpha expressed in baculovirus assessed as substrate phosphorylation using fluorescence-labelled peptides as substrate at 9 uM after 90 mins by microfluidic peptide phosphorylation assay
[2] = molecular target: T1, Serine/threonine-protein kinase BRSK2 (Homo sapiens) (UniProt Q8IWQ3); assay: Inhibition of human truncated BRSK2 expressed in baculovirus assessed as substrate phosphorylation using fluorescence-labelled peptides as substrate at 95 uM after 90 mins by microfluidic peptide phosphorylation assay
T1 sequence (whole entry): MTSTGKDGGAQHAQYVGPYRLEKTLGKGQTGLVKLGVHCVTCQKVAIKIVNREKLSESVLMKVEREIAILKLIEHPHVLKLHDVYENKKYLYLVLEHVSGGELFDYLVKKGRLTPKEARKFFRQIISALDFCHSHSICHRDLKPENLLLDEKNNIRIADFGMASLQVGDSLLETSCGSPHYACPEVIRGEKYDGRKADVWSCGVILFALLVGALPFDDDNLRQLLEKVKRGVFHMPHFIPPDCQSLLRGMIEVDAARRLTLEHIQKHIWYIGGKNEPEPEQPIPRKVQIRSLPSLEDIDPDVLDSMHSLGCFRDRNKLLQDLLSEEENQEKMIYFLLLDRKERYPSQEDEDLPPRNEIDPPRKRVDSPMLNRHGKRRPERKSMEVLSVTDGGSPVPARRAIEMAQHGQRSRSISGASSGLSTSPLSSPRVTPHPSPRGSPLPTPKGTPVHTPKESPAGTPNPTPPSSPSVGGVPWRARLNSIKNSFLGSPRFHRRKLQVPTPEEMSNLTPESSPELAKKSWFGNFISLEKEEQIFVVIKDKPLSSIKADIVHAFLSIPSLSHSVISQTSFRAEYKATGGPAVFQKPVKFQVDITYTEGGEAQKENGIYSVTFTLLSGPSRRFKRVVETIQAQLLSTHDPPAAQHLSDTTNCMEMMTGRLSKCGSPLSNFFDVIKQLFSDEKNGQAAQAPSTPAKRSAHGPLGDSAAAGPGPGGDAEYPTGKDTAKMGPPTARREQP

[3] = molecular target: T2, Protein kinase C epsilon type (Homo sapiens) (UniProt Q02156); details: 0.1 uM
T2 sequence (whole entry): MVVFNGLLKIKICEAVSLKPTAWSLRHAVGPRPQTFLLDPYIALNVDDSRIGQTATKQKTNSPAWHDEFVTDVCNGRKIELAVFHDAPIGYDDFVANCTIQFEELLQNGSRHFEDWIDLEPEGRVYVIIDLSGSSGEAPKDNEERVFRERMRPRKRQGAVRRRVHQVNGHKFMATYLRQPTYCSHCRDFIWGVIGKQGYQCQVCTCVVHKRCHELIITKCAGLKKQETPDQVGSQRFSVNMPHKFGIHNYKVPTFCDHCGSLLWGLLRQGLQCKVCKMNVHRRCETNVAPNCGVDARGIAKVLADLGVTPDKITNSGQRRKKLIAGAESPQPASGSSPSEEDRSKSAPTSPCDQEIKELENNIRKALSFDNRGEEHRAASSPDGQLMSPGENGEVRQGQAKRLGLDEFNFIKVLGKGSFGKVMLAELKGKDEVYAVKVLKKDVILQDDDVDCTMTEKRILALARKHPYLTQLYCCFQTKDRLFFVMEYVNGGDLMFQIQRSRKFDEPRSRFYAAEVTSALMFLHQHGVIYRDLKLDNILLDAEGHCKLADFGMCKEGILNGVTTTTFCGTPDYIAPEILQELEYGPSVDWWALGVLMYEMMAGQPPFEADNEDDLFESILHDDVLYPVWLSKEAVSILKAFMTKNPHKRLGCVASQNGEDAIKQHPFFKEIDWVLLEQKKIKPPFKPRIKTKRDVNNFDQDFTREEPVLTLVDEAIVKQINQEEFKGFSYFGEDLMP
Description: Inhibition of human truncated PKC epsilon expressed in baculovirus assessed as substrate phosphorylation using fluorescence-labelled peptides as substrate at 0.1 uM after 90 mins by microfluidic peptide phosphorylation assay

[4] = molecular target: Fibroblast growth factor receptor 1 (Homo sapiens) (UniProt P11362); assay: Inhibition of human FGFR1 catalytic domain expressed in baculovirus assessed as substrate phosphorylation using fluorescence-labelled peptides as substrate at 70 uM after 90 mins by microfluidic peptide phosphorylation assay
[5] = molecular target: Calcium/calmodulin-dependent protein kinase type II subunit delta (Homo sapiens) (UniProt Q13557); assay: Inhibition of human full length CAMK2D expressed in baculovirus assessed as substrate phosphorylation using fluorescence-labelled peptides as substrate at 70 uM after 90 mins by microfluidic peptide phosphorylation assay
[6] = molecular target: Fibroblast growth factor receptor 3 (Homo sapiens) (UniProt P22607); assay: Inhibition of human FGFR3 catalytic domain expressed in baculovirus assessed as substrate phosphorylation using fluorescence-labelled peptides as substrate at 8 uM after 90 mins by microfluidic peptide phosphorylation assay
[7] = molecular target: T3, Cytoplasmic tyrosine-protein kinase BMX (Homo sapiens) (UniProt P51813); assay: Inhibition of human full length BMX expressed in baculovirus assessed as substrate phosphorylation using fluorescence-labelled peptides as substrate at 8 uM after 90 mins by microfluidic peptide phosphorylation assay
T3 sequence (whole entry): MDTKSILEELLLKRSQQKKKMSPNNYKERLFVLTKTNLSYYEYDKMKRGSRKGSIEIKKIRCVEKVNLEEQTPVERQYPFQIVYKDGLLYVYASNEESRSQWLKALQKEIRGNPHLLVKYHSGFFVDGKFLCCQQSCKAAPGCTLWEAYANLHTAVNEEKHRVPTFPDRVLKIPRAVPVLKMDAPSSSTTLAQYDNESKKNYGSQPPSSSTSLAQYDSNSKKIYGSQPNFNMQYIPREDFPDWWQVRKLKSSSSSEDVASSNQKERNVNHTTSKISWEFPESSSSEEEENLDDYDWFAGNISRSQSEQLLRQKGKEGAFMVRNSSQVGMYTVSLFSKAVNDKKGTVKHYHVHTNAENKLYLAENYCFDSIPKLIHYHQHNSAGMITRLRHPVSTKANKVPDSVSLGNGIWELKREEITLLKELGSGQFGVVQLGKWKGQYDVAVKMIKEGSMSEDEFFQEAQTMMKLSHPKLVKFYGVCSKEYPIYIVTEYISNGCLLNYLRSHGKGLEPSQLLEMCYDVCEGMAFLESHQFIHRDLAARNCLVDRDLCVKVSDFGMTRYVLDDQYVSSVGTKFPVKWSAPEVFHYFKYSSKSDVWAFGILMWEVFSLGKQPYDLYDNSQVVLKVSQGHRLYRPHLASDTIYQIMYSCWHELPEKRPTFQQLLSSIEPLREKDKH

[8] = molecular target: Serine/threonine-protein kinase MARK2 (Homo sapiens) (UniProt Q7KZI7); assay: Inhibition of human full length MARK2 expressed in baculovirus assessed as substrate phosphorylation using fluorescence-labelled peptides as substrate at 1000 uM after 90 mins by microfluidic peptide phosphorylation assay
[9] = molecular target: Tyrosine-protein kinase Fyn (Homo sapiens) (UniProt P06241); assay: Inhibition of human full length FYN expressed in baculovirus assessed as substrate phosphorylation using fluorescence-labelled peptides as substrate at 1000 uM after 90 mins by microfluidic peptide phosphorylation assay
Sequence of Tyrosine-protein kinase Fyn (Homo sapiens) (P06241 2-537 limits assumed): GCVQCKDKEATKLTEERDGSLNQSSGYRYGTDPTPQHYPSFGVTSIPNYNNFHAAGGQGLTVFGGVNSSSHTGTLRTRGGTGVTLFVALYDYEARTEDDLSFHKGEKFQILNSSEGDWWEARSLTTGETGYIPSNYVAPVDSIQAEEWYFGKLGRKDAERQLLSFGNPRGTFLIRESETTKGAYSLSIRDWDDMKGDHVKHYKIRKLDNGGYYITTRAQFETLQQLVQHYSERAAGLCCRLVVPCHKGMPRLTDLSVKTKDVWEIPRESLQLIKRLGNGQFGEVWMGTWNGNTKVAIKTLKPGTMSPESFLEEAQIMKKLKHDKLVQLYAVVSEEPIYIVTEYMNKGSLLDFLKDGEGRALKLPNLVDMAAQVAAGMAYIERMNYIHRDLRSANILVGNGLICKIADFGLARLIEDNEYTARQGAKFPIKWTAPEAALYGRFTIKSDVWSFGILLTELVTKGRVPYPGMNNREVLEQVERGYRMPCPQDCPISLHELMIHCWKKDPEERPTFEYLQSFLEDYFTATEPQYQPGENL

Sequence of Serine/threonine-protein kinase MARK2 (Homo sapiens) (Q7KZI7 whole entry): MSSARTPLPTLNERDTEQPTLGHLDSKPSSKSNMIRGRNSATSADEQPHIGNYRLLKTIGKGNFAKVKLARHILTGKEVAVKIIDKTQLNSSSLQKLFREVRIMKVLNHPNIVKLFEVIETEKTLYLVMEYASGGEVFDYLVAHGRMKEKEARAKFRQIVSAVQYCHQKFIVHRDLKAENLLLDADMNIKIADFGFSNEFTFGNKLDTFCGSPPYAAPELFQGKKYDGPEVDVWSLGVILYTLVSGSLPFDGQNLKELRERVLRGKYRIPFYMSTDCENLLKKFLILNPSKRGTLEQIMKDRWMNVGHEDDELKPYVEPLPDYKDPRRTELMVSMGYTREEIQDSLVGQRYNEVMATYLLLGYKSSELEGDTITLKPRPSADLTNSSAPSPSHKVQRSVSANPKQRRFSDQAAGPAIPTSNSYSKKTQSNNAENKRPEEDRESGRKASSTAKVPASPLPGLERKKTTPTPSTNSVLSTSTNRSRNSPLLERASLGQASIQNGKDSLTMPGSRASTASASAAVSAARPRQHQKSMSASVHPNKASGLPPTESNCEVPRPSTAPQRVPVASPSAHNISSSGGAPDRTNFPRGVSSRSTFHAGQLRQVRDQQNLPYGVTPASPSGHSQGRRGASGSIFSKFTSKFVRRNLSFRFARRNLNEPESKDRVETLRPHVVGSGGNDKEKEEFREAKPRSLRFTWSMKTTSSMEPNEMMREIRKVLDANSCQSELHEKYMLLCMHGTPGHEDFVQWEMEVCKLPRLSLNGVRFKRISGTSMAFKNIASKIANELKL
Sequence of Calcium/calmodulin-dependent protein kinase type II subunit delta (Homo sapiens) (Q13557 whole entry, the tested form may be a part): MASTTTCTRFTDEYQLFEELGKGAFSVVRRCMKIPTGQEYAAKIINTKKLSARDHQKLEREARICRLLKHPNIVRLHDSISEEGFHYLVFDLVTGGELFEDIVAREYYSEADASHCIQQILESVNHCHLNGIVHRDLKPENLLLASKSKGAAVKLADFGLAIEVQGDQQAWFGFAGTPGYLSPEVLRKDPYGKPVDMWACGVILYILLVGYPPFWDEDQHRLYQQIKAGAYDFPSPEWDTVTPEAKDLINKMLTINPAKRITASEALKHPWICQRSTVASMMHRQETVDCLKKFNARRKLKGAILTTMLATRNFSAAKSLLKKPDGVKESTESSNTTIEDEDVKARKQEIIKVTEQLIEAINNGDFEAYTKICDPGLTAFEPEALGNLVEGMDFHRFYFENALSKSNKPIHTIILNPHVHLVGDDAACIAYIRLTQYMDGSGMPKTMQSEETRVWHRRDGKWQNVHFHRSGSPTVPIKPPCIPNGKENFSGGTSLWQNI
Sequence of Fibroblast growth factor receptor 3 (Homo sapiens) (P22607 23-806 limits assumed): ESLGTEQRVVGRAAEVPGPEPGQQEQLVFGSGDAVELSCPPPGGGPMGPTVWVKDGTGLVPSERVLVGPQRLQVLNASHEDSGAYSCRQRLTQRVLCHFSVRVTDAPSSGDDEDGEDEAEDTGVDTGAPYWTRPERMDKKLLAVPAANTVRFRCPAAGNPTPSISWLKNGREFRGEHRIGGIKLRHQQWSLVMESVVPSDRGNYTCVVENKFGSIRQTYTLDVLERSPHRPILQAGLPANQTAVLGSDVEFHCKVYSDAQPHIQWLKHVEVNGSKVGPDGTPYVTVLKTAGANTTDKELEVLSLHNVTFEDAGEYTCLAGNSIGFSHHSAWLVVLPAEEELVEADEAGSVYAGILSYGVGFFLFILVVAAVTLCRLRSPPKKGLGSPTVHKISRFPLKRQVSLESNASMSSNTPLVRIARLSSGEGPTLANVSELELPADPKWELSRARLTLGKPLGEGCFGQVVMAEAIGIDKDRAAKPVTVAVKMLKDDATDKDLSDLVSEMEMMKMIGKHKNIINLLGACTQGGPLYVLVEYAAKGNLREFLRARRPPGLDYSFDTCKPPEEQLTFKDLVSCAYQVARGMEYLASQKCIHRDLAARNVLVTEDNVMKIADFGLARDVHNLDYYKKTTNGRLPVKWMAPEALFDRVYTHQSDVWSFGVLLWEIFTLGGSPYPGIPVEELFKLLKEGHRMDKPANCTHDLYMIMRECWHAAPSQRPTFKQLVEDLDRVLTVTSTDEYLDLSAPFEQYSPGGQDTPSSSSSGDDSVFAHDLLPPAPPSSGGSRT
Sequence of Fibroblast growth factor receptor 1 (Homo sapiens) (P11362 22-822 limits assumed): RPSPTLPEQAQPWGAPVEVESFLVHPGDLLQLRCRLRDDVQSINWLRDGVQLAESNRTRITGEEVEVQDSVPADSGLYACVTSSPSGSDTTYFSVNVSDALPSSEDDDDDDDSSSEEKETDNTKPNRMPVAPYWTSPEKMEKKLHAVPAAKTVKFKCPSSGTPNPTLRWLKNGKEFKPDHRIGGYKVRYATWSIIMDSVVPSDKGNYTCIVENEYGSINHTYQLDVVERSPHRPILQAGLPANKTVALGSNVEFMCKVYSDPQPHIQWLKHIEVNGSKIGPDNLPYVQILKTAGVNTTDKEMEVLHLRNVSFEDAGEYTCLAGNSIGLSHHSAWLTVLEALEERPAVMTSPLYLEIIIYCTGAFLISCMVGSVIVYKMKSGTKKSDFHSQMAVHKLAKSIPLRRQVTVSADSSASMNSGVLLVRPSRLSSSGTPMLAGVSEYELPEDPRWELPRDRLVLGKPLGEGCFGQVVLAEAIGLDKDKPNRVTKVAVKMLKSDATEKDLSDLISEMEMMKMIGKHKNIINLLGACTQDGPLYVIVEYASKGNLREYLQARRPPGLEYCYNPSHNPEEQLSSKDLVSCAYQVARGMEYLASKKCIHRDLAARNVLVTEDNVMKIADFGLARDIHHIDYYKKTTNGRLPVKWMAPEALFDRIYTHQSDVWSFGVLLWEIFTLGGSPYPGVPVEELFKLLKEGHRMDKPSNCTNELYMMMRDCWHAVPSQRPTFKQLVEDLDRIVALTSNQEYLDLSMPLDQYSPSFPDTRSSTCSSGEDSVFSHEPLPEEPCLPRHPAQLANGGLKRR

For `NCC1CN(c2ncnc3[nH]c4cnccc4c23)CCO1` (centres undefined), the inhibition [1] was 14.5%.

Work on `NCCc1ccc(-c2ncnc3[nH]cnc23)cc1` yielded an inhibition [2] of 40%.

`C[C@H](CN(C)C)Oc1nc(Nc2cc3cccc(Cl)c3cn2)cnc1C#N` showed an inhibition [3] of 0%.

`CNCc1ccc(-c2ncnc3[nH]cnc23)cc1` was tested, and the inhibition [4] was 43% and the inhibition [5] was 17.5%.

For `NCC1CCN(c2ncnc3[nH]ccc23)CC1`, the inhibition [6] was 0.5% and the inhibition [7] was 42.5%.

`c1cnc2[nH]ccc2c1` showed an inhibition [8] of 75% and an inhibition [9] of 24%.
